Laboratory results reported in patent US5731326A, “PDGF antagonists II” (ZymoGenetics, Inc., priority 1996, dated 1998).
pIC50: −log10 of the molar value.

Columns and labels:
[1] = test system: bFGF; test: SRE-luciferase antagonist assay, induction by bFGF; assay type: cell-based; conditions: Swiss-3T3, SWISS3T3 cells, 5 hours, approximate
Source text: Initial characterization of NNC92-0270 as a non-peptide PDGF antagonist was made possible through an SRE-Luciferase high through-put assay system which involves selection of substances that are able to block expression of a serum response element (SRE)-luciferase reporter gene expressed in SWISS3T3 cells. […] The degree of antagonist specificity can be determined by comparing the resultant signal for the three growth factors (PDGF, bFGF and EGF). […]
Following induction, luciferase activity was measured using a Promega luciferase assay kit (E1500; Promega Corp., Madison, Wis.) according to the assay kit protocol. […] The amount of luminescence (relative light units, RLU) was determined following a 1 second mix and a 1-3 integration of signal. Basal (uninduced) luciferase signal was subtracted from all measurements, and the luciferase signal induced by test samples was expressed as a percentage of the signal in the control. […]

[2] = test system: baboon smooth muscle cells; test: Inhibition of PDGF-BB mitogenic activity on baboon smooth muscle cells ([3H] thymidine incorporation); assay type: cell-based; conditions: for 3H Thymidine (CPM Incorporated), (-) Heparin: no heparin, control 1701
Method: NNC92-0270 was analyzed for the ability to inhibit the mitogenic activity of PDGF on baboon smooth muscle cells. All mitogenesis assays performed on baboon vascular smooth muscle cells (BVSMCs) were done on primary cultures of cells between passages 13 and 20 in culture. The initial cultures were established from outgrowth of aortic tissue explants. Baboon smooth muscle cells were plated at approximately 20,000 cells per well, in DMEM supplemented with 10% fetal calf serum, into 24-well culture dishes. One day prior to use the culture media was removed, and 1 ml of Mito Media (Table 5) was added to each well to allow the cells to become quiescent. At the time of the experiment the cells were stimulated with PDGF-BB. […] 20× stock solutions were made for each of the PDGF concentrations by dilution in 10 mM acetic acid containing 0.25% albumin, and 50 ul PDGF or dilution vehicle alone was added to the culture wells.
To analyze the activity of NNC92-0270 to neutralize PDGF-BB mitogenic activity, 1 ng/ml of PDGF was added to wells along with dilutions of NNC92-0270. The cells were incubated with the test samples for approximately 20 hours at 37 ° C. Fifty microliters of a 20× stock solution of [3H] Thymidine was then added to each well to give a final concentration of 1 μCi/ml. The cells were incubated for 4 hours at 37 ° C., washed with PBS, then harvested with trypsin and counted for [^3 H] thymidine incorporation in a Wallac (Turku, Finland) Betaplate™ liquid scintillation counter.
NNC92-0270 was incubated with 1 ng/ml of PDGF-BB in the presence of 0.5 U/ml of unfractionated heparin. The cells were pulse labeled with [^3 H] thymidine as described above and the level of [^3 H] thymidine determined.

O=C(NN1CCCCC1)NS(=O)(=O)c1ccc(CCNC(=O)c2[nH]c3ccccc3c2OCc2ccccc2)cc1 [NNC92-0270]
pIC50 [1]: < 4.00
3H Thymidine (CPM Incorporated), (+) 0.5 U/ml Heparin ([2]; 6.2 μM with 1 ng/ml PDGF-BB and 0.5 U/ml heparin): 1007 CPM
3H Thymidine (CPM Incorporated), (-) Heparin ([2]; 6.2 μM with 1 ng/ml PDGF-BB): 1378 CPM
3H Thymidine (CPM Incorporated), (+) 0.5 U/ml Heparin ([2]; 12.5 μM with 1 ng/ml PDGF-BB and 0.5 U/ml heparin): 586 CPM
3H Thymidine (CPM Incorporated), (-) Heparin ([2]; 12.5 μM with 1 ng/ml PDGF-BB): 870 CPM
3H Thymidine (CPM Incorporated), (+) 0.5 U/ml Heparin ([2]; 25 μM with 1 ng/ml PDGF-BB and 0.5 U/ml heparin): 220 CPM
3H Thymidine (CPM Incorporated), (-) Heparin ([2]; 25 μM with 1 ng/ml PDGF-BB): 334 CPM
3H Thymidine (CPM Incorporated), (+) 0.5 U/ml Heparin ([2]; 50 μM with 1 ng/ml PDGF-BB and 0.5 U/ml heparin): 211 CPM
3H Thymidine (CPM Incorporated), (-) Heparin ([2]; 50 μM with 1 ng/ml PDGF-BB): 309 CPM
Effect of adding heparin to the compound on [3H] thymidine incorporation (in words) ([2]; 0.5 U/ml unfractionated heparin, 1 ng/ml PDGF-BB): further inhibition
pIC50 ([2]; Papio anubis, 20 h, read-out: ED50 for the inhibition of PDGF-BB mitogenic activity): ~4.90
